ChEMBL document CHEMBL1158668, “Novel bioactivities of Curcuma longa constituents” (1998)
The source made the active and inactive calls. No cut-off for these calls is given here.

Assays:
[1] = biological target: T1, DNA topoisomerase 1 (Saccharomyces cerevisiae S288c) (UniProt P04786); assay: Inhibition of topoisomerase 1 in Saccharomyces cerevisiae JN394t-1 assessed as inhibition of growth at 50 ug/mL after 72 hrs
T1 sequence (whole entry): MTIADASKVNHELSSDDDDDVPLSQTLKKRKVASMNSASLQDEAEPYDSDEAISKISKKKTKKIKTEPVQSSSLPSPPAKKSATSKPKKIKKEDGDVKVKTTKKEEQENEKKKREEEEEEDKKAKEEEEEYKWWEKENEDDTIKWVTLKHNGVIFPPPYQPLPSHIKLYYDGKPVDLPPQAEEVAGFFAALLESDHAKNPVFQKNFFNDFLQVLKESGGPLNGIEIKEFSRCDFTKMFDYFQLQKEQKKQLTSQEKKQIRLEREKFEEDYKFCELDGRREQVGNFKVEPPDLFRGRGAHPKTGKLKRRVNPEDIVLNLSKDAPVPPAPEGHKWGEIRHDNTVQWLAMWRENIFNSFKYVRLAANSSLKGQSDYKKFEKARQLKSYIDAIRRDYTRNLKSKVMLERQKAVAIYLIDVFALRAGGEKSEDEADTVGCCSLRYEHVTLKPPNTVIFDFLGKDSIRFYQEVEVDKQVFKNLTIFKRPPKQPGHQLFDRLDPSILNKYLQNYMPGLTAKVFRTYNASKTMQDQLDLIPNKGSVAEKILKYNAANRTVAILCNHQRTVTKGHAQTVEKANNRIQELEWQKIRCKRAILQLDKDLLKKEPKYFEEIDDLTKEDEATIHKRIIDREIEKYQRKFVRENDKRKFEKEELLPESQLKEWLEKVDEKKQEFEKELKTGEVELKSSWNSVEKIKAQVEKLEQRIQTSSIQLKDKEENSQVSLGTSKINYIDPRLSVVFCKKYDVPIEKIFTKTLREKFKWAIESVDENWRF

[2] = biological target: T2, DNA topoisomerase 2 (Saccharomyces cerevisiae S288c) (UniProt P06786); assay: Inhibition of topoisomerase 2 in Saccharomyces cerevisiae JN394t2-5 assessed as inhibition of growth at 25 ug/mL after 72 hrs
T2 sequence (whole entry): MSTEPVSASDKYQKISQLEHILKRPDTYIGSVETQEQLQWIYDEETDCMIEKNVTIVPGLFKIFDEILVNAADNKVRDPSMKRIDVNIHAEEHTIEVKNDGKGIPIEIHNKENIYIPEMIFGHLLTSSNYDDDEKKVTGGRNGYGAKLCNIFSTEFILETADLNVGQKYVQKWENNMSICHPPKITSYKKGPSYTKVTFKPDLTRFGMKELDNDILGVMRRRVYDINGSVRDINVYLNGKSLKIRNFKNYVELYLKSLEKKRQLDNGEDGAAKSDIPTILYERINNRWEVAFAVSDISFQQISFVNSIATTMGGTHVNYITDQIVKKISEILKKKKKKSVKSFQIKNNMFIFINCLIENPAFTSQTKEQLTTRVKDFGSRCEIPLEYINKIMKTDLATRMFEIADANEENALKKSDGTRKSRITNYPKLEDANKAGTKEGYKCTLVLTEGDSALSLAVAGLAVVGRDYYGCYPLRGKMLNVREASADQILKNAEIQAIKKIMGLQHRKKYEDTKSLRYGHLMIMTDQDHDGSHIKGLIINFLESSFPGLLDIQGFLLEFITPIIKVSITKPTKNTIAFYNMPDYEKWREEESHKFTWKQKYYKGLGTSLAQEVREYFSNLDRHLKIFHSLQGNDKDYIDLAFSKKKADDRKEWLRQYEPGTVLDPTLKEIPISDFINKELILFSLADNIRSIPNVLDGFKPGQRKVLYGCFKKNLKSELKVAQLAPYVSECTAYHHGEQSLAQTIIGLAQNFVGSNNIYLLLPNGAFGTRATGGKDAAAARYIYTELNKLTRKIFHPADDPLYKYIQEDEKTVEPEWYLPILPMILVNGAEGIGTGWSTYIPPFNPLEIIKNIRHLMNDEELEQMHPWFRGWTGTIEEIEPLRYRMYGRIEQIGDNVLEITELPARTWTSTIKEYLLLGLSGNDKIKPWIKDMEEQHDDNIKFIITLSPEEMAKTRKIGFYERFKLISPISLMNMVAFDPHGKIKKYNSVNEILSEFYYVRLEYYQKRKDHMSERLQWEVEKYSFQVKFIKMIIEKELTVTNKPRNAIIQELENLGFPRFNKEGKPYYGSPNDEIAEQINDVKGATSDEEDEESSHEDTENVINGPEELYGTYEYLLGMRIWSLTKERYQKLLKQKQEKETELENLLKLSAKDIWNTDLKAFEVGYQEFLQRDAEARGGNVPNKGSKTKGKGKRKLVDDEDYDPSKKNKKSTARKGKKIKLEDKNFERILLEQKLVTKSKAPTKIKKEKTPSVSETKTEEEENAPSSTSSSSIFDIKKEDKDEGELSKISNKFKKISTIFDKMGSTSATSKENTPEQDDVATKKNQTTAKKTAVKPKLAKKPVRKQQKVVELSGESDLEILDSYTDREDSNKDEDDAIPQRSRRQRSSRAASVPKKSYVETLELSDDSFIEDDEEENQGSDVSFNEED

[3] = biological target: T2, DNA topoisomerase 2 (Saccharomyces cerevisiae S288c); assay: Inhibition of topoisomerase 2 in Saccharomyces cerevisiae JN394t-1 assessed as inhibition of growth at 50 ug/mL after 72 hrs
[4] = biological target: T2, DNA topoisomerase 2 (Saccharomyces cerevisiae S288c); assay: Inhibition of topoisomerase 2 in Saccharomyces cerevisiae JN394 assessed as inhibition of growth at 25 ug/mL after 72 hrs
[5] = biological target: T1, DNA topoisomerase 1 (Saccharomyces cerevisiae S288c); assay: Inhibition of topoisomerase 1 in Saccharomyces cerevisiae JN394t-1 assessed as inhibition of growth at 25 ug/mL after 72 hrs
[6] = biological target: T2, DNA topoisomerase 2 (Saccharomyces cerevisiae S288c); assay: Inhibition of topoisomerase 2 in Saccharomyces cerevisiae JN394t-1 assessed as inhibition of growth at 25 ug/mL after 72 hrs
[7] = biological target: T1, DNA topoisomerase 1 (Saccharomyces cerevisiae S288c); assay: Inhibition of topoisomerase 1 in Saccharomyces cerevisiae JN394 assessed as inhibition of growth at 50 ug/mL after 72 hrs
[8] = biological target: T2, DNA topoisomerase 2 (Saccharomyces cerevisiae S288c); assay: Inhibition of topoisomerase 2 in Saccharomyces cerevisiae JN394 assessed as inhibition of growth at 50 ug/mL after 72 hrs
[9] = biological target: T2, DNA topoisomerase 2 (Saccharomyces cerevisiae S288c); assay: Inhibition of topoisomerase 2 in Saccharomyces cerevisiae JN394t2-5 assessed as inhibition of growth at 50 ug/mL after 72 hrs
[10] = biological target: T1, DNA topoisomerase 1 (Saccharomyces cerevisiae S288c); assay: Inhibition of topoisomerase 1 in Saccharomyces cerevisiae JN394t2-5 assessed as inhibition of growth at 50 ug/mL after 72 hrs
[11] = biological target: T1, DNA topoisomerase 1 (Saccharomyces cerevisiae S288c); assay: Inhibition of topoisomerase 1 in Saccharomyces cerevisiae JN394t2-5 assessed as inhibition of growth at 25 ug/mL after 72 hrs
[12] = biological target: T1, DNA topoisomerase 1 (Saccharomyces cerevisiae S288c); assay: Inhibition of topoisomerase 1 in Saccharomyces cerevisiae JN394 assessed as inhibition of growth at 25 ug/mL after 72 hrs
Candida albicans = assay: Antimicrobial activity against Candida albicans at 1 ug/mL; format: functional, organism-based
Candida parapsilosis = assay: Antimicrobial activity against Candida parapsilosis at 25 ug/mL; format: functional, organism-based
Pichia kudriavzevii = assay: Antimicrobial activity against Candida krusei at 25 ug/mL; format: functional, organism-based
Aedes aegypti [13] = assay: Mosquitocidal activity against Aedes aegypti fourth instar larvae assessed as mortality at 10 ug/mL after 48 hrs; format: functional
Aedes aegypti [14] = assay: Mosquitocidal activity against Aedes aegypti fourth instar larvae; format: functional
Aedes aegypti [15] = assay: Mosquitocidal activity against Aedes aegypti fourth instar larvae assessed as mortality at 50 ug/mL after 18 hrs; format: functional, organism-based

| Activity [1] | Activity [3] | Activity [7] | Activity [8] | Activity [9] | Activity [10] | Compound | other results |
| --- | --- | --- | --- | --- | --- | --- | --- |
| Active | Active | Active | Active | Active | Active | O=C(/C=C/c1ccc(O)cc1)CC(=O)/C=C/c1ccc(O)cc1 | Activity [2]: Active; Activity [4]: Active; Activity [5]: Active; Activity [6]: Active; Activity [11]: Active; Activity [12]: Active |
| – | – | – | – | – | – | C=C1CC[C@H]2C(C)(C)CCC[C@]2(C)[C@H]1C/C=C(\C=O)CC=O [LABDADIENEDIAL] | Activity (Candida albicans): Active; Activity (Candida parapsilosis): Active; Activity (Pichia kudriavzevii): Active; Activity (Aedes aegypti [13]): 100% |
| Active | Active | Active | Active | Active | Active | COc1cc(/C=C/C(O)=C/C(=O)/C=C/c2ccc(O)cc2)ccc1O | – |
| – | – | – | – | – | – | CC(C)=CC(=O)CC(C)c1ccc(C)cc1 (centres undefined) | LD100 (Aedes aegypti [14]): 50 µg/mL; Activity (Aedes aegypti [15]): Active |
